The test system of this data set is transgenic mouse glioma cells (neurosphere cultures). The experiment in a line: CytoTox-Fluor cytotoxicity assay, neurosphere glioma cultures. The class given is cell-based. Conditions: cdkn2a deletion with PDGFB or EGFRvIII; 24 h; 5 at 20 μM, CBD at 10 μM. On the procedure:
FIGS. 5A-D. Activity of 5 against neurosphere glioma cell cultures with clinically relevant mutations. Transgenic mouse glioma cells of defined molecular subtypes were generated by forced expression of EGFRvIII (classical GBM subtype), PDGFB (proneural GBM subtype) in cdkn2a-deficient and cdkn2a/TRPV1-doubly deficient subventricular neural precursors (NPC). These primary cell cultures were treated for 24 hours either with 10 μM CBD versus a corresponding vehicle-control (containing 0.01% DMSO) or 20 μM of 5 versus vehicle control (0.02% DMSO). Cytotoxicity was measured 24 h after incubation and base-line cytotoxicity levels in the controls were arbitrarily defined as 1. Read-outs from treated cells were normalized to their respective vehicle controls and -fold change of relative cytotoxicity was calculated. Each bar represents the mean±SD from two independent experiments; statistical significance, as determined by unpaired t-tests, is indicated: *** represents p<0.001; ** p<0.005; * p=0.0257; ns not significant).
Human mammary carcinoma MCF-7 (ATCC HTB22) cells were cultured in RPMI supplemented with 10% FBS. […]
The CytoTox-Fluor cytotoxicity assay from Promega has been used according to manufacturer's instructions. […] After 2 hours of incubation at 37° C., the fluorescence intensity was measured using the Tecan InfiniteF200 fluorescence plate reader (485 nm Ex/520 nm Em). […]

With `COC(=O)/C=C/C1=CC[C@H]2C(C)(C)CCC[C@]2(C)[C@H]1C=O` [Compound 5], the “cytotoxicity against GBM neurosphere cultures” value is “effectiveness similar to that of cannabidiol (CBD)”.
